Data reported in patent US20240299352A1, “COMBINATION THERAPIES WITH SETD2 INHIBITORS” (Epizyme, Inc., priority 2021, published 2024).

Test system: diffuse large B-cell lymphoma (DLBCL) cell lines
Assay: Pre-treatment model combination study with Cpd. No. 15 (7 days pre-treatment, then combination; Table G), CellTiter-Glo viability, Loewe Volume
Conditions: 7 days pre-treatment with Cpd. No. 15, then combination; for Combination effect with Cpd. No. 15 (Loewe Volume class), Farage: cell line Farage (Cat. No. CRL-2630); for Combination effect with Cpd. No. 15 (Loewe Volume class), HT: cell line HT (Cat. No. CRL-2631); for Combination effect with Cpd. No. 15 (Loewe Volume class), OCILY7: cell line OCILY7 (Cat. No. ACC 688); for Combination effect with Cpd. No. 15 (Loewe Volume class), SUDHL4: cell line SUDHL4 (Cat. No. ACC 495); for Combination effect with Cpd. No. 15 (Loewe Volume class), WILL2: cell line WILL2 (Cat. No. ACC 652)

SMILES	Combination effect with Cpd. No. 15 (Loewe Volume class), Farage	Combination effect with Cpd. No. 15 (Loewe Volume class), HT	Combination effect with Cpd. No. 15 (Loewe Volume class), OCILY7	Combination effect with Cpd. No. 15 (Loewe Volume class), SUDHL4	Combination effect with Cpd. No. 15 (Loewe Volume class), WILL2
CC(=O)Nc1cccc(-n2c(=O)n(C3CC3)c(=O)c3c(Nc4ccc(I)cc4F)n(C)c(=O)c(C)c32)c1 [Trametinib]	Synergy (VLoewe>1: synergy)	Synergy (VLoewe>1: synergy)	Synergy (VLoewe>1: synergy)	Synergy (VLoewe>1: synergy)	–
COc1cc(Nc2ncc(F)c(Nc3ccc4c(n3)NC(=O)C(C)(C)O4)n2)cc(OC)c1OC [Tamatinib]	Synergy (VLoewe>1: synergy)	Additivity (between 1 and −1: additivity)	Additivity (between 1 and −1: additivity)	Synergy (VLoewe>1: synergy)	Additivity (between 1 and −1: additivity)
NC1(c2ccc(-c3nc4ccn5c(=O)[nH]nc5c4cc3-c3ccccc3)cc2)CCC1 [MK2206]	Synergy (VLoewe>1: synergy)	Synergy (VLoewe>1: synergy)	Synergy (VLoewe>1: synergy)	Synergy (VLoewe>1: synergy)	Synergy (VLoewe>1: synergy)
COc1cccc2c1C(=O)c1c(O)c3c(c(O)c1C2=O)C[C@@](O)(C(=O)CO)C[C@@H]3O[C@H]1C[C@H](N)[C@H](O)[C@H](C)O1 [Doxorubicin (H)]	Synergy (VLoewe>1: synergy)	Synergy (VLoewe>1: synergy)	Additivity (between 1 and −1: additivity)	Synergy (VLoewe>1: synergy)	Synergy (VLoewe>1: synergy)
CN(C)CCCOc1ccc(-c2ccc3ncc4c(c3c2)n(C2CCOCC2)c(=O)n4C)cn1 [AZD0156]	Synergy (VLoewe>1: synergy)	Synergy (VLoewe>1: synergy)	Synergy (VLoewe>1: synergy)	Synergy (VLoewe>1: synergy)	No Effect
NC(=O)c1cccc2cn(-c3ccc([C@@H]4CCCNC4)cc3)nc12 [Niraparib]	Synergy (VLoewe>1: synergy)	Synergy (VLoewe>1: synergy)	Additivity (between 1 and −1: additivity)	Synergy (VLoewe>1: synergy)	Synergy (VLoewe>1: synergy)
O=C(c1cc(Cc2n[nH]c(=O)c3ccccc23)ccc1F)N1CCN(C(=O)C2CC2)CC1 [Olaparib]	Synergy (VLoewe>1: synergy)	Synergy (VLoewe>1: synergy)	Additivity (between 1 and −1: additivity)	Synergy (VLoewe>1: synergy)	Synergy (VLoewe>1: synergy)
C[C@@H]1COCCN1c1cc(C2([S@](C)(=N)=O)CC2)nc(-c2cc[nH]c3nccc2-3)n1 [AZD6738]	Synergy (VLoewe>1: synergy)	Additivity (between 1 and −1: additivity)	Additivity (between 1 and −1: additivity)	Synergy (VLoewe>1: synergy)	No Effect
C=CCn1c(=O)c2cnc(Nc3ccc(N4CCN(C)CC4)cc3)nc2n1-c1cccc(C(C)(C)O)n1 [AZD1775]	Synergy (VLoewe>1: synergy)	Additivity (between 1 and −1: additivity)	Additivity (between 1 and −1: additivity)	Synergy (VLoewe>1: synergy)	Synergy (VLoewe>1: synergy)
CC[C@H](Nc1ncnc2[nH]cnc12)c1nc2cccc(F)c2c(=O)n1-c1ccccc1 [Idelalisib]	Synergy (VLoewe>1: synergy)	Synergy (VLoewe>1: synergy)	Additivity (between 1 and −1: additivity)	Synergy (VLoewe>1: synergy)	–
NC(=O)Nc1cc(-c2cccc(F)c2)sc1C(=O)N[C@H]1CCCNC1 [AZD7762]	Synergy (VLoewe>1: synergy)	Additivity (between 1 and −1: additivity)	Additivity (between 1 and −1: additivity)	Synergy (VLoewe>1: synergy)	Additivity (between 1 and −1: additivity)
